Measurements reported in patent US10501518B2 (priority 2013, dated 2019).
Starred links: 1 amine or outer side, 2 acyl side, 3 side chain; linkers in the order of their positions; H or OH if unused. Non-standard residues stand in square brackets, D forms with d. Residues, ends and D or L forms follow the SMILES beside them. *: point of attachment. NH(1S,2S-2-CONH2-cPent) = NC(=O)[C@H]1CCC[C@@H]1N*; X12 = O=C([C@H]1CCC[C@@H]1N[*:1])[*:2]; X13 = O=C([C@H]1CNC[C@@H]1N[*:1])[*:2]; ACPC(1S,2S) = N[C@H]1CCC[C@@H]1C(=O)*; β3hA = C[C@H](N)CC(=O)O

Columns and labels:
Type in all cases: cell-based
WT human PTHR-1 = target: T1, WT human PTHR-1 (Homo sapiens, UniProt Q03431); assay: cAMP GloSensor dose-response in GP-2.3 cells expressing human PTHR-1; settings: Table 8; for Fold PTH, nM (hPTHR1): EC50 relative to PTH(1-34)
T1 construct: bioactivity of the resulting compound in full-length hPTHR-1 and a truncated version; expressed in transfected cells
T1 sequence (Q03431 27-593): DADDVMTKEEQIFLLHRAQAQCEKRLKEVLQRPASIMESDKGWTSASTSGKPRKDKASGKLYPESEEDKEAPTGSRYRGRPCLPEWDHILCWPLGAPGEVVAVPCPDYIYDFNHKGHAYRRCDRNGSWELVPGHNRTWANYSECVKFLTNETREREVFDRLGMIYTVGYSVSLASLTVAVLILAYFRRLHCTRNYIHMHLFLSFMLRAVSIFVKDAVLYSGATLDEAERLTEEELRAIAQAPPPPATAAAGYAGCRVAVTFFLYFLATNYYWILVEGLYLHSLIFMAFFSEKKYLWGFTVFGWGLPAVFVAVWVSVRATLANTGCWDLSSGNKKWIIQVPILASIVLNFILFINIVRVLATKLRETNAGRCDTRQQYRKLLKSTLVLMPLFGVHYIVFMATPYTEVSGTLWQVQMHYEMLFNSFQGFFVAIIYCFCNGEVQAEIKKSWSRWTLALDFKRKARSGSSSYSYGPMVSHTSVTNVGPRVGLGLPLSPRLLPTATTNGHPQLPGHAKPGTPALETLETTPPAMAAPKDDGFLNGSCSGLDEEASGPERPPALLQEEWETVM
Experimental: FIGS. 8A, 8B, and 8C constitute a series of graphs depicting cAMP responses in GP-2.3 cells expressing wild-type human parathyroid hormone receptor 1 (PTHR-1-WT). […] Data are means (±SEM) of n>4 experiments, each performed in duplicate.
For cAMP dose-response assays, monolayers of confluent HEK 293 cells were pre-incubated with buffer containing d-luciferin (0.5 mM) in 96 well plates at room temperature until a stable baseline level of luminescence was established (30 min). Varying concentrations of agonist were then added, and the time course of luminescence response was recorded using a Perkin Elmer plate reader following α/β-peptide addition.

delNT PTHR1 = target: T2, delNT PTHR1 (Homo sapiens, UniProt Q03431, DEL24-181); assay: cAMP-inducing potency at truncated receptor delNT PTHR1; settings: for Fold PTH, nM (deINT PTHR1): EC50 relative to PTH(1-34)
T2 construct: expressed in transfected cells
T2 sequence (Q03431 with tags, fused parts or gaps DEL24-181): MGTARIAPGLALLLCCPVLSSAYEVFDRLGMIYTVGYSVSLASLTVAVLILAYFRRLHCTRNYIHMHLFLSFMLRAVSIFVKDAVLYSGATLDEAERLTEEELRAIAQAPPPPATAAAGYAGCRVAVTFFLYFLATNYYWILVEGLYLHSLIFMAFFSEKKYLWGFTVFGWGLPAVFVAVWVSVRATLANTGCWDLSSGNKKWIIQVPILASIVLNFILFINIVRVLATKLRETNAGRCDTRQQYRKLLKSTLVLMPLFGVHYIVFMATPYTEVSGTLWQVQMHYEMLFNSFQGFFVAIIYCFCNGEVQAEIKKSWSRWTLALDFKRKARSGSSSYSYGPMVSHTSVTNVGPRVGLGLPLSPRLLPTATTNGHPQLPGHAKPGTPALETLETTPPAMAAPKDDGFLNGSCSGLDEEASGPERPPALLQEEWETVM

PTH2R/PTH1R = assay: cAMP response selectivity between PTH2R and PTH1R; settings: Table 16; most selective
Source text: Selected analogs containing beta-amino acid substitutions selectively signal through one or the other of the two receptors. Without being bound to any underling biological phenomenon or mechanism, PTHR-2 likely serves an alternative function to PTHR-1 as it is highly expressed in the central nervous system. In contrast, PTHR-1 is highly expressed in bone and kidney, but not in the CNS. The analogs disclosed herein are thus useful as therapeutic compounds that a specific agonists or antagonists of PTHR-1 and PTHR-2.

PTHR = target: T3, PTHR (Homo sapiens, UniProt Q03431); assay: cAMP induction potency, N-terminal modifications and cyclic constraints (Tables 9, 10, 13); settings: Table 9
T3 construct: expressed in transfected cells
T3 sequence (Q03431 27-593): T1 sequence (Q03431 27-593)

| Structure (SMILES) | Fold PTH, nM (deINT PTHR1) (delNT PTHR1; Table 8) | cAMP response PTH2R/PTH1R (PTH2R/PTH1R) | Fold PTH, nM (hPTHR1) (WT human PTHR-1) | cAMP-inducing potency in delNT PTHR-1, in words (delNT PTHR1) | also measured |
| --- | --- | --- | --- | --- | --- |
| CC[C@H](C)[C@H](NC(=O)[C@H](CCC(=O)O)NC(=O)[C@H](CO)NC(=O)[C@@H](NC(=O)[C@@H](N)CO)C(C)C)C(=O)N[C@@H](CCC(N)=O)C(=O)N[C@@H](CC(C)C)C(=O)N[C@@H](CCSC)C(=O)N[C@H]1CNC[C@@H]1C(=O)N[C@@H](CC(N)=O)C(=O)N[C@@H](CC(C)C)C(=O)NCC(=O)N[C@@H](CCCCN)C(=O)N[C@@H](Cc1c[nH]cn1)C(=O)N[C@@H](CC(C)C)C(=O)N[C@@H](CC(N)=O)C(=O)N[C@@H](CO)C(=O)N[C@@H](CCSC)C(=O)N[C@@H](CCC(=O)O)C(=O)N[C@@H](CCCNC(=N)N)C(=O)N[C@H](C(=O)N[C@@H](CCC(=O)O)C(=O)N[C@@H](Cc1c[nH]c2ccccc12)C(=O)N[C@@H](CC(C)C)C(=O)N[C@@H](CCCNC(=N)N)C(=O)N[C@@H](CCCCN)C(=O)N[C@@H](CCCCN)C(=O)N[C@@H](CC(C)C)C(=O)N[C@@H](CCC(N)=O)C(=O)N[C@@H](CC(=O)O)C(=O)N[C@H](C(=O)N[C@@H](Cc1c[nH]cn1)C(=O)N[C@@H](CC(N)=O)C(=O)N[C@@H](Cc1ccccc1)C(N)=O)C(C)C)C(C)C [APC(9)] (H-SVSEIQLM[X13]NLGKHLNSMERVEWLRKKLQDVHNF-NH2; N-terminus assumed) | 87 | – | – | – | hPTHR1 EC50, nM (Means ± SEM) (WT human PTHR-1; cAMP-inducing potency, N-terminal modifications): No activity |
| CSCC[C@H](NC(=O)[C@H]1CCC[C@@H]1NC(=O)[C@H](CCC(N)=O)NC(=O)[C@H]1CCC[C@@H]1NC(=O)[C@H](CCC(=O)O)NC(=O)[C@H](CO)NC(=O)[C@@H](NC(=O)[C@H]1CCC[C@@H]1N)C(C)C)C(=O)N[C@@H](Cc1c[nH]cn1)C(=O)N[C@@H](CC(N)=O)C(=O)N[C@@H](CC(C)C)C(=O)NCC(=O)N[C@@H](CCCCN)C(=O)N[C@H]1CCC[C@@H]1C(=O)N[C@@H](CC(C)C)C(=O)N[C@@H](CC(N)=O)C(=O)N[C@@H](CO)C(=O)N[C@H]1CCC[C@@H]1C(=O)N[C@@H](CCC(=O)O)C(=O)N[C@@H](CCCNC(=N)N)C(=O)N[C@H](C(=O)N[C@H]1CNC[C@@H]1C(=O)N[C@@H](Cc1c[nH]c2ccccc12)C(=O)N[C@@H](CC(C)C)C(=O)N[C@@H](CCCNC(=N)N)C(=O)N[C@H]1CNC[C@@H]1C(=O)N[C@@H](CCCCN)C(=O)N[C@@H](CC(C)C)C(=O)N[C@@H](CCC(N)=O)C(=O)N[C@H]1CCC[C@@H]1C(=O)N[C@H](C(=O)N[C@@H](Cc1c[nH]cn1)C(=O)N[C@@H](CC(N)=O)C(=O)N[C@H]1CCC[C@@H]1C(N)=O)C(C)C)C(C)C [FcycD6_ACPC(1,5,7), XVSEXQXMHNLGKXLNSXERVZWLRZKLQXVHNX-NH2] ({ACPC(1S,2S)}-VSE[X12]Q[X12]MHNLGK[X12]LNS[X12]ERV[X13]WLR[X13]KLQ[X12]VHN-{NH(1S,2S-2-CONH2-cPent)}; N-terminus assumed) | – | 45 | – | – | Fold PTH (PTHR): 234 |
| CC[C@H](C)[C@H](NC(=O)[C@H](CCC(=O)O)NC(=O)[C@H](CO)NC(=O)[C@@H](NC(=O)C[C@H](C)N)C(C)C)C(=O)N[C@@H](CCC(N)=O)C(=O)N[C@@H](CC(C)C)C(=O)N[C@@H](CCSC)C(=O)N[C@@H](Cc1c[nH]cn1)C(=O)N[C@@H](CC(N)=O)C(=O)N[C@@H](CC(C)C)C(=O)NCC(=O)N[C@@H](CCCCN)C(=O)N[C@@H](Cc1c[nH]cn1)C(=O)N[C@@H](CC(C)C)C(=O)N[C@@H](CC(N)=O)C(=O)N[C@@H](CO)C(=O)N[C@@H](CCSC)C(=O)N[C@@H](CCC(=O)O)C(=O)N[C@@H](CCCNC(=N)N)C(=O)N[C@H](C(=O)N[C@@H](CCC(=O)O)C(=O)N[C@@H](Cc1c[nH]c2ccccc12)C(=O)N[C@@H](CC(C)C)C(=O)N[C@@H](CCCNC(=N)N)C(=O)N[C@@H](CCCCN)C(=O)N[C@@H](CCCCN)C(=O)N[C@@H](CC(C)C)C(=O)N[C@@H](CCC(N)=O)C(=O)N[C@@H](CC(=O)O)C(=O)N[C@H](C(=O)N[C@@H](Cc1c[nH]cn1)C(=O)N[C@@H](CC(N)=O)C(=O)N[C@@H](Cc1ccccc1)C(N)=O)C(C)C)C(C)C [β^3Ala(1)] (H-[β3hA]VSEIQLMHNLGKHLNSMERVEWLRKKLQDVHNF-NH2) | 0.4 | – | 2.2 | – | EC50 (WT human PTHR-1; cAMP-inducing potency, N-terminal modifications, read-out: hPTHR1 EC50, nM (Means ± SEM)): 0.2 ± 0.09 nM |
| CC[C@H](C)[C@H](NC(=O)[C@H](CCC(=O)O)NC(=O)[C@H](CO)NC(=O)[C@@H](NC(=O)[C@@H](N)CO)C(C)C)C(=O)N[C@@H](CCC(N)=O)CC(=O)N[C@@H](CC(C)C)C(=O)N[C@@H](CCSC)C(=O)N[C@@H](Cc1c[nH]cn1)C(=O)N[C@@H](CC(N)=O)C(=O)N[C@@H](CC(C)C)C(=O)NCC(=O)N[C@@H](CCCCN)C(=O)N[C@@H](Cc1c[nH]cn1)C(=O)N[C@@H](CC(C)C)C(=O)N[C@@H](CC(N)=O)C(=O)N[C@@H](CO)C(=O)N[C@@H](CCSC)C(=O)N[C@@H](CCC(=O)O)C(=O)N[C@@H](CCCNC(=N)N)C(=O)N[C@H](C(=O)N[C@@H](CCC(=O)O)C(=O)N[C@@H](Cc1c[nH]c2ccccc12)C(=O)N[C@@H](CC(C)C)C(=O)N[C@@H](CCCNC(=N)N)C(=O)N[C@@H](CCCCN)C(=O)N[C@@H](CCCCN)C(=O)N[C@@H](CC(C)C)C(=O)N[C@@H](CCC(N)=O)C(=O)N[C@@H](CC(=O)O)C(=O)N[C@H](C(=O)N[C@@H](Cc1c[nH]cn1)C(=O)N[C@@H](CC(N)=O)C(=O)N[C@@H](Cc1ccccc1)C(N)=O)C(C)C)C(C)C [β^3Gln(6)] | 110 | 133 | 159.7 | – | – |
| CC[C@H](C)[C@@H](CC(=O)N[C@@H](CCC(N)=O)C(=O)N[C@@H](CC(C)C)C(=O)N[C@@H](CCSC)C(=O)N[C@@H](Cc1c[nH]cn1)C(=O)N[C@@H](CC(N)=O)C(=O)N[C@@H](CC(C)C)C(=O)NCC(=O)N[C@@H](CCCCN)C(=O)N[C@@H](Cc1c[nH]cn1)C(=O)N[C@@H](CC(C)C)C(=O)N[C@@H](CC(N)=O)C(=O)N[C@@H](CO)C(=O)N[C@@H](CCSC)C(=O)N[C@@H](CCC(=O)O)C(=O)N[C@@H](CCCNC(=N)N)C(=O)N[C@H](C(=O)N[C@@H](CCC(=O)O)C(=O)N[C@@H](Cc1c[nH]c2ccccc12)C(=O)N[C@@H](CC(C)C)C(=O)N[C@@H](CCCNC(=N)N)C(=O)N[C@@H](CCCCN)C(=O)N[C@@H](CCCCN)C(=O)N[C@@H](CC(C)C)C(=O)N[C@@H](CCC(N)=O)C(=O)N[C@@H](CC(=O)O)C(=O)N[C@H](C(=O)N[C@@H](Cc1c[nH]cn1)C(=O)N[C@@H](CC(N)=O)C(=O)N[C@@H](Cc1ccccc1)C(N)=O)C(C)C)C(C)C)NC(=O)[C@H](CCC(=O)O)NC(=O)[C@H](CO)NC(=O)[C@@H](NC(=O)[C@@H](N)CO)C(C)C [β^3Ile(5)] | – | – | – | weak or no potency | deINT PTHR1 EC50, nM (Means ± SEM) (delNT PTHR1; Table 8, truncated receptor lacking Ala^24-Arg^181): No activity |
| CC[C@H](C)[C@H](NC(=O)[C@H](CCC(=O)O)NC(=O)[C@H](CO)NC(=O)[C@@H](NC(=O)[C@@H](N)CO)C(C)C)C(=O)N[C@@H](CCC(N)=O)C(=O)N[C@H](CC(=O)N[C@@H](CCSC)C(=O)N[C@@H](Cc1c[nH]cn1)C(=O)N[C@@H](CC(N)=O)C(=O)N[C@@H](CC(C)C)C(=O)NCC(=O)N[C@@H](CCCCN)C(=O)N[C@@H](Cc1c[nH]cn1)C(=O)N[C@@H](CC(C)C)C(=O)N[C@@H](CC(N)=O)C(=O)N[C@@H](CO)C(=O)N[C@@H](CCSC)C(=O)N[C@@H](CCC(=O)O)C(=O)N[C@@H](CCCNC(=N)N)C(=O)N[C@H](C(=O)N[C@@H](CCC(=O)O)C(=O)N[C@@H](Cc1c[nH]c2ccccc12)C(=O)N[C@@H](CC(C)C)C(=O)N[C@@H](CCCNC(=N)N)C(=O)N[C@@H](CCCCN)C(=O)N[C@@H](CCCCN)C(=O)N[C@@H](CC(C)C)C(=O)N[C@@H](CCC(N)=O)C(=O)N[C@@H](CC(=O)O)C(=O)N[C@H](C(=O)N[C@@H](Cc1c[nH]cn1)C(=O)N[C@@H](CC(N)=O)C(=O)N[C@@H](Cc1ccccc1)C(N)=O)C(C)C)C(C)C)CC(C)C [β^3Leu(7)] | – | – | – | weak or no potency | – |
